How the values were obtained:
[1] = biological target: T1, FXR (Homo sapiens, UniProt Q96RI1); experiment: In Vitro FXR Assay (PGL3): luciferase reporter in transfected CV-1 cells; format: cell-based; details: CV-1 cells transfected with hFXR, hRXR, PGL3-ECRE*6-luc; 18 h incubation; luminescence
T1 construct: expressed in transfected cells; host or cells: CV-1 cells
T1 sequence (Q96RI1 1-486): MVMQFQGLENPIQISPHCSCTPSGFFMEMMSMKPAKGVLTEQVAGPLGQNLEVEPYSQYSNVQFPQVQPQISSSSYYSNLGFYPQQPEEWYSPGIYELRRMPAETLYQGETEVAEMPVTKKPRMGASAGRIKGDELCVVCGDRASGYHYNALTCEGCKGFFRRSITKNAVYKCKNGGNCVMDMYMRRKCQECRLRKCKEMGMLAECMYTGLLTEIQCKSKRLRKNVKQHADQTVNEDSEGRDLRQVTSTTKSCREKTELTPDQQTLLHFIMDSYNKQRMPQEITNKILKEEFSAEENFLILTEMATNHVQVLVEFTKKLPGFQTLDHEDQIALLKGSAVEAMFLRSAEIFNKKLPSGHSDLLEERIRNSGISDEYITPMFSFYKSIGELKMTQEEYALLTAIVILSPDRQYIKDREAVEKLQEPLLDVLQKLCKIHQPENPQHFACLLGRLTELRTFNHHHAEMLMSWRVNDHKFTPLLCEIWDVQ
T1 sequence (P19793 1-462 partner): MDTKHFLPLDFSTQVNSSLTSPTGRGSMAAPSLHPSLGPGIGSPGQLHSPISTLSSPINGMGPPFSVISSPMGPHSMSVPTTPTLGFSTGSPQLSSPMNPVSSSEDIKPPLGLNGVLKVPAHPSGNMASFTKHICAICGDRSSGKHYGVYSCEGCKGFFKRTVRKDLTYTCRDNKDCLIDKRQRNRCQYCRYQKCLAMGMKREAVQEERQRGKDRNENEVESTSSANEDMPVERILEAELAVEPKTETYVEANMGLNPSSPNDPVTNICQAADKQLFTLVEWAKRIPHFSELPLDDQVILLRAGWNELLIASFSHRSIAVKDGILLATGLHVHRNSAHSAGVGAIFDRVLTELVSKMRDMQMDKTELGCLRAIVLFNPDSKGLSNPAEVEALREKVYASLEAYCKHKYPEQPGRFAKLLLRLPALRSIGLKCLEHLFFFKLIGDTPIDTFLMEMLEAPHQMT
Protocol: Example B-1: In Vitro FXR Assay (PGL3)
CV-1 cells were seeded at a density of 2,000,000 cells in a T175 flask with DMEM+10% charcoal double-stripped FBS and incubated at 37° C. in a 5% CO2 for 18 h (O/N).
After 18 h of incubation, the medium in the T175 flask was changed with fresh DMEM+10% charcoal super-stripped serum.
To prepare the transfection reaction mixture, the transfection reagent (X-tremeGENE HP from Roche, Cat #06 366 236 001) was added in to a 1.5 mL microcentrifuge tube labelled “A” at a ratio of 1:3 (DNA in transfection reagent in μL). OptiMEM medium (Life Technologies, Cat #31985-062) was added accordingly to provide a total volume of 1 mL. The transfection reaction mixture was then briefly vortexed and incubated at room temperature for 5 minutes.
In a separate 1.5 mL microcentrifuge tube labelled “B”, 100 μL OptiMEM and plasmids XPD90Gal pCMXhFXRfl, pCMXhRXRfl+PGL3-ECRE*6-luc+CMX-YFP in the ratio 2 μg:2 μg:18 μg:3 μg were added. This microcentrifuge tube “B” was then briefly vortexed and incubated at room temperature for 5 minutes.
The total volume in tube labelled “A” was then transferred in to tube labelled “B.” The mixture was then briefly vortexed and the transfection:DNA complex was then incubated for about 15-20 minutes at room temperature.
Following incubation, the transfection reagent/DNA mixture complex was then added to cells in the T175 flask and the cells were incubated at […] (O/N) at 37° C. in 5% CO2.
In a 96 well plate, a half logarithmic serial dilution was prepared. OptiMEM was used as the diluent. Using any of one of the compounds described herein, a compound stock solution of 10 mM was prepared. An initial 1:100 dilution was made into the first well for a final concentration of 100 μM. The final concentrations in the 96-well plate was prepared by using a multichannel pipette to transfer 5 μL of the diluted compound to 384-well plate in quadruplicate.
Cells in T175 flask were trypsinized and cells were resuspended in 40 mL phenol red free DMEM+10% charcoal super-stripped FBS. Typically, one T175 flask was sufficient to seed two 384 well plates. CV-1 cells were seeded at 45 μL cell suspension/well using a multi-channel pipet or a 384 multidrop dispenser. The cells were then incubated for 18 hrs, overnight.
After removing the plates from the incubator, the medium was flicked out of plate and 384 well plate was turned upside down onto paper towel. The remaining medium was gently tapped out. 15 μL lysis buffer was then added to each well using a multichannel pipet or a 384 well multi-drop dispenser. After incubation for 10 minutes at room temperature on shaker, 30 μL Luciferase buffer was added to each well. Luminescence counts were taken immediately using the Perkin Elmer Envision.
The ability of the compounds disclosed herein to […] FXR activity was quantified and the respective EC50 value was determined. Fex=fexaramine.

[2] = biological target: T1, FXR; experiment: In Vitro FXR Assay (TK): TK-ECRE-luc reporter in transfected CV-1 cells; format: cell-based; details: CV-1 cells transfected with hFXR, hRXR, 18 h incubation, luminescence
Summary of the method: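 Luciferase read-out from lysed CV-1 cells exposed 18 h to DMSO-diluted compounds. Cells had been transfected overnight with expression plasmids for hFXR and hRXR plus TK-ECRE-luc reporter and pCMX-YFP, grown in charcoal-stripped serum at 37 °C, 5% CO2.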

Row | SMILES | Cmpd/Fex (ratio of the EC50 for the test compound relative to the EC50 of the Fexaramine control) [1] | EC50 [2]
1 | COC(=O)/C=C/c1cccc(N(Cc2cccc(-c3ccccc3)c2)C(=O)C2CCCCC2)c1 [compound 82, (E)-Methyl 3-(3-(N-([1,1′-biphenyl]-3-ylmethyl)cyclohexanecarboxamido)phenyl) acrylate] | + (‘+’ means Cmpd/Fex > 100) | > 10 µM
2 | COC(=O)/C=C/c1cccc(N(Cc2ccc(-c3ccc(O)cc3)cc2)C(=O)C2CCCCC2)c1 [compound 57, (E)-Methyl 3-(3-(N-((4′-hydroxy-[1,1′-biphenyl]-4-yl)methyl)cyclohexanecarboxamido)phenyl) acrylate] | + (‘+’ means Cmpd/Fex > 100) | > 10 µM
3 | COC(=O)CCc1cccc(N(Cc2ccc(-c3ccc(N(C)C)cc3)cc2)C(=O)C2CCCCC2)c1C [compound 92, Methyl 3-(3-(N-((4′-(dimethylamino)-[1,1′-biphenyl]-4-yl)methyl)cyclohexanecarboxamido)-2-methylphenyl)propanoate] | + (‘+’ means Cmpd/Fex > 100) | 1 to 10 µM
4 | COC(=O)/C=C/c1cccc(N(Cc2ccc(-c3ccc(N(C)C)cc3)c(C)c2)C(=O)C2CCCCC2)c1 [compound 53, (E)-Methyl 3-(3-(N-((4′-(dimethylamino)-2-methyl-[1,1′-biphenyl]-4-yl)methyl)cyclohexanecarboxamido)phenyl) acrylate] | +++ (‘+++’ means Cmpd/Fex < 10) | 1 to 10 µM
5 | COC(=O)/C=C/c1cccc(N(Cc2ccc(N3CCNCC3)cc2)C(=O)C2CCCCC2)c1 [compound 79, (E)-Methyl 3-(3-(N-(4-(piperazin-1-yl)benzyl)cyclohexanecarboxamido)phenyl) acrylate] | + (‘+’ means Cmpd/Fex > 100) | –
6 | COC(=O)/C=C/c1cccc(N(Cc2ccc(N3CCN(C)CC3)cc2)C(=O)C2CCCCC2)c1 [compound 76, (E)-Methyl 3-(3-(N-(4-(4-methylpiperazin-1-yl)benzyl)cyclohexanecarboxamido)phenyl) acrylate] | + (‘+’ means Cmpd/Fex > 100) | –
7 | COC(=O)/C=C/c1cccc(N(Cc2ccc(-c3ccc4ncoc4c3)cc2)C(=O)C2CCCCC2)c1 [75.12, (E)-Methyl 3-(3-(N-(4-(benzo[d]oxazol-6-yl)benzyl)cyclohexanecarboxamido)phenyl) acrylate] | – | 1 to 10 µM
8 | COC(=O)/C=C/c1cccc(N(Cc2ccc(-c3ccc(N(C)C)cc3)cc2)C(=O)C2CC[S+]([O-])CC2)c1 (stereo not drawn) [13.19, (E)-Methyl 3-(3-(N-((4′-(dimethylamino)-[1,1′-biphenyl]-4-yl)methyl)-1-oxidotetrahydro-2H-thiopyran-4-carboxamido)phenyl)acrylate] | – | 1 to 10 µM

Results, then the compound that gave them:

Row | Cmpd/Fex (ratio of the EC50 for the test compound relative to the EC50 of the Fexaramine control) [1] | EC50 [2] | SMILES
9 | +++ (‘+++’ means Cmpd/Fex < 10) | ≤ 1 µM | COC(=O)/C=C/c1cccc(N(Cc2ccc(-c3ccc(N(C)C)cc3)cc2)C(=O)[C@H]2CC[C@@H](OC)CC2)c1 [compound 8, (E)-Methyl 3-(3-((1r,4r)-N-((4′-(dimethylamino)-[1,1′-biphenyl]-4-yl)methyl)-4-methoxycyclohexanecarboxamido)phenyl)acrylate]
10 | +++ (‘+++’ means Cmpd/Fex < 10) | ≤ 1 µM | COC(=O)/C=C/c1cccc(N(Cc2ccc(-c3ccc(N(C)C)cc3)cc2)C(=O)C2CCCCCC2)c1 [compound 11, (E)-Methyl 3-(3-(N-((4′-(dimethylamino)-[1,1′-biphenyl]-4-yl)methyl)cycloheptanecarboxamido)phenyl)acrylate]
11 | ++ (‘++’ means Cmpd/Fex > 10 & < 100) | 1 to 10 µM | COC(=O)/C=C/c1cccc(N(Cc2ccc(-c3ccc(N(C)C)cc3)cc2)C(=O)C2COC2)c1 [compound 6, (E)-Methyl 3-(3-(N-((4′-(dimethylamino)-[1,1′-biphenyl]-4-yl)methyl)oxetane-3-carboxamido)phenyl)acrylate]

Reference: patent US10626081B2, “Farnesoid X receptor agonists and uses thereof” (Metacrine, Inc., priority 2015, dated 2020)
